Here are results for three compounds from patent publication US11046716B2, “Beta-lactamase inhibitors” (priority 2015, dated 2021).

Assay [1] has as its target OXA-48 (UniProt Q6XEC0). In words: β-lactamase enzyme inhibition assay, Class D oxacillinase. The format is biochemical. Particulars: read-out: OXA-48.
Assay [2] concerns the target T1, VIM-2 (Escherichia coli, UniProt Q5U7L7).
T1 construct: made in house; host or cells: E. coli BL21(DE3)
Briefly: β-lactamase enzyme inhibition assay, VIM-2 (nitrocefin substrate). The format is biochemical. Particulars: Class B; nitrocefin substrate, 486 nm; read-out: VIM-2. In outline: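 First, VIM-2 purified by repeated anion exchange at pH 7.5 is mixed with inhibitor and held 15 min at 37 °C. Next, nitrocefin (final 100 μM) is dispensed and absorbance at 486 nm monitored immediately for 10 min. Rates versus uninhibited controls give IC50.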

The target in assay [3] is T2, SHV-5 (Klebsiella pneumoniae, UniProt P0A3M1).
T2 construct: made in house; host or cells: E. coli BL21(DE3)
In words: β-lactamase enzyme inhibition assay, SHV-5 (cefotaxime substrate). The format is biochemical. In outline: (§1)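 Untagged enzyme from E. coli BL21(DE3), purified by Capto S then Superdex 75; 15 min 37 °C preincubation with inhibitor; KPC-2 read with imipenem at 300 nm, SHV-5 with cefotaxime at 260 nm, OXA-1 with nitrocefin 100 μM final at 486 nm; 10 min kinetic read; IC50 vs uninhibited wells.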

The test system of assay [4] is K. pneumoniae expressing the class A carbapenemase KPC-2 and the class B carbapenemase VIM-4. In words: Broth microdilution MIC assay with meropenem, K. pneumoniae KPC-2 and VIM-4. The class given is cell-based. Particulars: Fixed Mero (meropenem) 4 μg/mL; K. p. A-1797 KPC-2 VIM-4. The essentials: (§2)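 Strains grown 3-5 hours in CAMHB are inoculated by the CLSI broth microdilution method onto compound dilutions (16 to 0.125 μg/mL) overlaid with β-lactam at 4 μg/ml final. After 16-20 hours at 37° C, the lowest compound concentration inhibiting growth is taken as the MIC.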
(In general: Broth dilution looks for growth in wells or tubes with falling amounts of substance.)

For assay [5], the system named is K. pneumoniae expressing the Class A carbapenemase KPC-2. Briefly: Broth microdilution MIC assay with meropenem, K. pneumoniae KPC-2. Particulars: Fixed Mero (meropenem) 4 μg/mL; K. p. 156319 KPC-3. The format is cell-based. The essentials: as §2
Assay [6] has as its system E. coli expressing the Class A Extended Spectrum Beta-Lactamase (ESBL) CTX-M-15. In words: Broth microdilution MIC assay with ceftazidime, E. coli CTX-M-15. The class given is cell-based. Particulars: Fixed CAZ (ceftazidime) 4 μg/mL; E. coli ESBL4 CTX-M-15. In outline:
as §2

Assay [7] concerns the target T3, KPC-2 (Klebsiella pneumoniae, UniProt Q9F663).
T3 construct: made in house; host or cells: E. coli BL21(DE3)
Briefly: β-lactamase enzyme inhibition assay, KPC-2 (imipenem substrate). The class given is biochemical. Particulars: Class A; imipenem substrate, 300 nm; read-out: KPC-2. In outline: as §1

Assay [8] has as its target T4, AmpC (Enterobacter cloacae, UniProt P05364).
T4 construct: made in house; host or cells: E. coli BL21(DE3)
Briefly: β-lactamase enzyme inhibition assay, p99 AmpC (nitrocefin substrate). The class given is biochemical. The essentials:
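Untagged enzyme from E. coli BL21(DE3), purified by Capto S then Superdex 75; 15 min 37 °C preincubation with inhibitor; 10 min kinetic read; IC50 vs uninhibited wells.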

Assay [9] deals with P. aeruginosa expressing the Class B carbapenemase VIM-2. In words: Broth microdilution MIC assay with meropenem, P. aeruginosa VIM-2. The format is cell-based. Particulars: Fixed Mero (meropenem) 4 μg/mL; P. aerug. 2775 VIM-2. The essentials: as §2
The subject of assay [10] is K. pneumoniae producing the Class D carbapenemase OXA-48. In words: Broth microdilution MIC assay with meropenem, K. pneumoniae OXA-48. The class given is cell-based. Particulars: Fixed Mero (meropenem) 4 μg/mL; K. p. 11978 OXA-48. The essentials:
as §2

The subject of assay [11] is E. cloacae expressing the Class C P99. Briefly: Broth microdilution MIC assay with ceftazidime, E. cloacae P99. Particulars: Fixed CAZ (ceftazidime) 4 μg/mL; E. cl. 144200 p99 AmpC. The format is cell-based. The essentials:
as §2

T4 sequence (P05364 21-381): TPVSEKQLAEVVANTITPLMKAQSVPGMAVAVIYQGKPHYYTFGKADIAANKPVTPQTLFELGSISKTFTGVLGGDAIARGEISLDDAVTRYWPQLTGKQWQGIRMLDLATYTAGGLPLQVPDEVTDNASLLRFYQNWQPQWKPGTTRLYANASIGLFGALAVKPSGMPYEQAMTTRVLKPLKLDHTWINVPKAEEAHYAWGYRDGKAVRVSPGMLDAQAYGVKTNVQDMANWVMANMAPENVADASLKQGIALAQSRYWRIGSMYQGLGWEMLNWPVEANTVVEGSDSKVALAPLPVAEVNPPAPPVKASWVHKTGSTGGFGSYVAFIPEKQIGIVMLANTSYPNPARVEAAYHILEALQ
T3 sequence (Q9F663 25-293, looked up): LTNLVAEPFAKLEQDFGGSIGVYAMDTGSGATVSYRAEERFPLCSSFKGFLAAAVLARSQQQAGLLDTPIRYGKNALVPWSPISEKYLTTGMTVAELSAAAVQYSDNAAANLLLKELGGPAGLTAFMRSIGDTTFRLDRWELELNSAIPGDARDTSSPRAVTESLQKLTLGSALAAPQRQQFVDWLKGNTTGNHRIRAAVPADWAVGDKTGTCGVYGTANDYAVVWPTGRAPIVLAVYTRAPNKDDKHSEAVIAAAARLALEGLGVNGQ
T2 sequence (P0A3M1 22-286): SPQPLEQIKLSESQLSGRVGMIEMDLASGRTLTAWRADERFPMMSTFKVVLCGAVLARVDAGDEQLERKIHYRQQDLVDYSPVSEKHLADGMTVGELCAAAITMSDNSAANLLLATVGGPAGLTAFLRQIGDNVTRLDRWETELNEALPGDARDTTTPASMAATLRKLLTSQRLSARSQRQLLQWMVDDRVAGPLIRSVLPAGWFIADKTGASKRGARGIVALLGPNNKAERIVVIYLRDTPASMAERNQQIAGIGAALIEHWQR

Consider `N=CNCCn1nnnc1CC(=O)N[C@H]1Cc2cccc(C(=O)O)c2OB1O` [Example 104, (R)-3-(2-(1-(2-formimidamidoethyl)-1H-tetrazol-5-yl)acetamido)-2-hydroxy-3,4-dihydro-2H-benzo[e][1,2]oxaborinine-8-carboxylic acid], for which the IC50 in assay [1] was 100 to 1000 nM; in assay [2], 100 to 1000 nM; in assay [3] it was less than 100 nM; in [7], less than 100 nM; in assay [8], less than 100 nM. Further, in assay [4], the “MIC (μg/mL) of Exemplary Compounds in presence of fixed β-lactams: K. p. A-1797 KPC-2 VIM-4” value (“MIC (μg/mL) … K. p. A-1797 KPC-2 VIM-4” for short) is on record as “C (C represents an MIC of <1 μg/mL)”. For the same compound, the “MIC (μg/mL) of Exemplary Compounds in presence of fixed β-lactams: K. p. 156319 KPC-3” value (“MIC (μg/mL) … K. p. 156319 KPC-3” for short) in assay [5] is given as “C (C represents an MIC of <1 μg/mL)”. In addition, in assay [6], the “MIC (μg/mL) of Exemplary Compounds in presence of fixed β-lactams: E. coli ESBL4 CTX-M-15” value (shortened to “MIC (μg/mL) … E. coli ESBL4 CTX-M-15”) was “C (C represents an MIC of <1 μg/mL)”. The “MIC (μg/mL) of Exemplary Compounds in presence of fixed β-lactams: P. aerug. 2775 VIM-2” value (“MIC (μg/mL) … P. aerug. 2775 VIM-2” below) in assay [9] was “C (C represents an MIC of <1 μg/mL)”. Further, the “MIC (μg/mL) of Exemplary Compounds in presence of fixed β-lactams: K. p. 11978 OXA-48” value (“MIC (μg/mL) … K. p. 11978 OXA-48” below) in assay [10] is reported as “C (C represents an MIC of <1 μg/mL)”. In addition, the “MIC (μg/mL) of Exemplary Compounds in presence of fixed β-lactams: E. cl. 144200 p99 AmpC” value (from here on “MIC (μg/mL) … E. cl. 144200 p99 AmpC”) in assay [11] is “C (C represents an MIC of <1 μg/mL)”.

For `NCc1nnn(CC(=O)N[C@H]2Cc3cccc(C(=O)O)c3OB2O)c1I` [Example 105, (R)-3-(2-(4-(aminomethyl)-5-iodo-1H-1,2,3-triazol-1-yl)acetamido)-2-hydroxy-3,4-dihydro-2H-benzo[e][1,2]oxaborinine-8-carboxylic acid], the IC50 in [1] is less than 100 nM; in assay [2], less than 100 nM; in [3], 100 to 1000 nM; in assay [7], less than 100 nM; in assay [8], less than 100 nM. The “MIC (μg/mL) … K. p. A-1797 KPC-2 VIM-4” value in assay [4] is recorded as “C (C represents an MIC of <1 μg/mL)”. Also, the “MIC (μg/mL) … K. p. 156319 KPC-3” value in [5] is on record as “C (C represents an MIC of <1 μg/mL)”. In assay [6], the “MIC (μg/mL) … E. coli ESBL4 CTX-M-15” value is “C (C represents an MIC of <1 μg/mL)”. Besides, in [9], the “MIC (μg/mL) … P. aerug. 2775 VIM-2” value was “C (C represents an MIC of <1 μg/mL)”. In addition, in assay [10], the “MIC (μg/mL) … K. p. 11978 OXA-48” value is “C (C represents an MIC of <1 μg/mL)”. The “MIC (μg/mL) … E. cl. 144200 p99 AmpC” value in [11] is listed as “C (C represents an MIC of <1 μg/mL)”.

Take `Cc1c(CN)nnn1CC(=O)N[C@H]1Cc2cccc(C(=O)O)c2OB1O` [Example 106, (R)-3-(2-(4-(aminomethyl)-5-methyl-1H-1,2,3-triazol-1-yl)acetamido)-2-hydroxy-3,4-dihydro-2H-benzo[e][1,2]oxaborinine-8-carboxylic acid]: the IC50 was less than 100 nM in assay [1]; less than 100 nM in assay [2]; 100 to 1000 nM in [3]; less than 100 nM in [7]; less than 100 nM in assay [8]. In addition, the “MIC (μg/mL) … K. p. A-1797 KPC-2 VIM-4” value in [4] is “C (C represents an MIC of <1 μg/mL)”. Moreover, the “MIC (μg/mL) … K. p. 156319 KPC-3” value in assay [5] is “C (C represents an MIC of <1 μg/mL)”. Also, the “MIC (μg/mL) … E. coli ESBL4 CTX-M-15” value in [6] is given as “C (C represents an MIC of <1 μg/mL)”. Moreover, in [9], the “MIC (μg/mL) … P. aerug. 2775 VIM-2” value was “C (C represents an MIC of <1 μg/mL)”. Also, the “MIC (μg/mL) … K. p. 11978 OXA-48” value in assay [10] is “B (B represents an MIC between 1 and 16 μg/mL inclusive)”. The “MIC (μg/mL) … E. cl. 144200 p99 AmpC” value in assay [11] is recorded as “C (C represents an MIC of <1 μg/mL)”.
